# Biological target: T1, B1R of the rat (Rattus norvegicus, UniProt P97583)
# T1 construct: expressed in transfected cells; host or cells: CHO K1 cells (Chinese hamster ovary), stably transfected
# T1 sequence (P97583 1-337): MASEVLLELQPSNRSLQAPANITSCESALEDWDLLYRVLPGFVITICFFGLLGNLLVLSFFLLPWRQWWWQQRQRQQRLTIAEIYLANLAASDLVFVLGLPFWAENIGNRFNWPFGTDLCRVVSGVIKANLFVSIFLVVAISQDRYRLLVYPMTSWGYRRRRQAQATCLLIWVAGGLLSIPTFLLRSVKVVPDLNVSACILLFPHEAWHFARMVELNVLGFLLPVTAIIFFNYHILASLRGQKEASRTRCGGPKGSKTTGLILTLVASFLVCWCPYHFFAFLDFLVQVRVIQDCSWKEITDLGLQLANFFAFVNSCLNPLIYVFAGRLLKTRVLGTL
# Assay: FLIPR Ca2+ functional assay, B1R antagonism, rat B1R in CHO K1 cells
# Format: cell-based
# Details: test substance 10 μM; rB1R CHO K1 cells; agonist Des-Arg9 bradykinin at EC80; % of maximum achievable inhibition
# Experimental: The agonistic or antagonistic action of substances on the bradykinin 1 receptor (B1R) of the human and rat species can be quantified with ectopically expressing cell lines (CHO K1 cells) and with the aid of a Ca^2+-sensitive dye (Fluo-4) using a fluorescent imaging plate reader (FLIPR). The value in % activation is based on the Ca^2+ signal after addition of Lys-Des-Arg^9 bradykinin (0.5 nM) or Des-Arg^9 bradykinin (100 nM). Antagonists lead to a suppression of the Ca^2+ influx following administration of the agonist. The % inhibition in comparison with the maximum achievable inhibition is indicated.
# 1. Functional Investigation on the Bradykinin 1 Receptor (B1R) The agonistic or antagonistic action of substances can be determined on the bradykinin 1 receptor (B1R) of the human and rat species with the following assay. According to this assay, the Ca^2+ inflow through the channel is quantified with the aid of a Ca^2+-sensitive dye (Fluo-4 type, Molecular Probes Europe BV, Leiden, Netherlands) in a fluorescent imaging plate reader (FLIPR, Molecular Devices, Sunnyvale, USA). 2. Method: Chinese hamster ovary cells (CHO K1 cells) which are stably transfected with the human B1R gene (hB1R cells) or the B1R gene of the rat (rB1R cells) are used. For functional investigations these cells are plated-out onto black 96-well plates with a clear base (BD Biosciences, Heidelberg, Germany or Greiner, Frickenhausen, Germany) in a density of 20,000-35,000 cells/well. Overnight the cells are incubated at 37° C. and 5% CO2 in culture medium (hB1R cells: Ham's Nutrient Mixture F12, Gibco Invitrogen GmbH, Karlsruhe, Germany or DMEM, Sigma-Aldrich, Taufkirchen, Germany; rB1R cells: D-MEM/F12, Gibco Invitrogen, Karlsruhe, Germany) with 10 vol. % FBS (foetal bovine serum, Gibco Invitrogen GmbH, Karlsruhe, Germany or PAN Biotech GmbH, Aidenbach, Germany).
# On the following day the cells are loaded with 2.13 μM Fluo-4 (Molecular Probes Europe BV, Leiden, Netherlands) in HBSS buffer (Hank's buffered saline solution, Gibco Invitrogen GmbH, Karlsruhe, Germany) with 2.5 mM probenecid (Sigma-Aldrich, Taufkirchen, Germany) and 10 mM HEPES (Sigma-Aldrich, Taufkirchen, Germany) for 60 min at 37° C. The plates are subsequently washed twice with HBSS buffer, and HBSS buffer which additionally contains 0.1% BSA (bovine serum albumin; Sigma-Aldrich, Taufkirchen, Germany), 5.6 mM glucose and 0.05% gelatine (Merck KGaA, Darmstadt, Germany) is added. After a further incubation of 20 minutes at RT, the plates are inserted into the FLIPR for Ca^2+ measurement. Alternatively they are washed with buffer A (15 mM HEPES, 80 mM NaCl, 5 mM KCl, 1.2 mM CaCl2, 0.7 mM MgSO4, 2 g/l glucose, 2.5 mM probenecid) and loaded with buffer A with added 2.5 μM Fluo-4 and 0.025% Pluronic F127 (Sigma-Aldrich, Taufkirchen, Germany). The cells are then washed twice with buffer A and incubated for 30 minutes with buffer A, which additionally contains 0.05% BSA and 0.05% gelatine, at RT and then used for Ca^2+ measurement in the FLIPR. The Ca^2+-dependent fluorescence is measured here before and after addition of substances (λex=488 nm, λem=540 nm). The quantification is performed by measuring the highest fluorescence intensity (FC, fluorescence counts) over time.
# The FLIPR protocol comprises two additions of substance. Test substances (10 μM) are first pipetted onto the cells and the Ca^2+ inflow is compared with the control (hB1R: Lys-Des-Arg^9 bradykinin >=50 nM; rB1R: Des-Arg^9 bradykinin 10 μM). The value in % activation based on the Ca^2+ signal after addition of Lys-Des-Arg^9 bradykinin (>=50 nM) or Des-Arg^9 bradykinin (10 μM) is obtained therefrom. After incubation for 10-20 minutes, Lys-Des-Arg^9 bradykinin (hB1R) or Des-Arg^9 bradykinin (rB1R) is applied in the EC80 concentration and the inflow of Ca^2+ is likewise determined.
# Antagonists lead to a suppression of the Ca^2+ inflow. The % inhibition in comparison with the maximum achievable inhibition is calculated. […]
row,SMILES,inhibition at 10 µM [%]
1,"Cc1cccc(Cl)c1S(=O)(=O)N1CCn2cccc2C1CC(=O)NC1CCN(Cc2ccccc2)C1 (centres unmarked) [Example 157, N-(1-Benzyl-pyrrolidin-3-yl)-2-[2-[(2-chloro-6-methyl-phenyl)sulfonyl]-1,2,3,4-tetrahydro-pyrrolo[1,2-a]pyrazin-1-yl]-acetamide]",69.5
2,"Cc1cccc(Cl)c1S(=O)(=O)N1CCn2cccc2C1CC(=O)N1CCN(c2ccccc2F)CC1 (centres unmarked) [Example 158, 2-[2-[(2-Chloro-6-methyl-phenyl)sulfonyl]-1,2,3,4-tetrahydro-pyrrolo[1,2-a]pyrazin-1-yl]-1-[4-(2-fluorophenyl)-piperazin-1-yl]-ethanone]",32
3,"Cc1cccc(Cl)c1S(=O)(=O)N1CCn2cccc2C1CC(=O)N1CCC(N2CCOCC2)CC1 (centres unmarked) [Example 159, 2-[2-[(2-Chloro-6-methyl-phenyl)sulfonyl]-1,2,3,4-tetrahydro-pyrrolo[1,2-a]pyrazin-1-yl]-1-(4-morpholin-4-yl-piperidin-1-yl)-ethanone]",3.48
4,"Cc1cccc(Cl)c1S(=O)(=O)N1CCn2cccc2C1CC(=O)N1CCC(N2CCN(C)CC2)CC1 (centres unmarked) [Example 161, 2-[2-[(2-Chloro-6-methyl-phenyl)sulfonyl]-1,2,3,4-tetrahydro-pyrrolo[1,2-a]pyrazin-1-yl]-1-[4-(4-methyl-piperazin-1-yl)-piperidin-1-yl]-ethanone]",10.5
5,"Cc1ccc2[nH]c(C3CCN(C(=O)CC4c5cccn5CCN4S(=O)(=O)c4c(C)cccc4Cl)CC3)nc2c1 (centres unmarked) [Example 163, 2-[2-[(2-Chloro-6-methyl-phenyl)sulfonyl]-1,2,3,4-tetrahydro-pyrrolo[1,2-a]pyrazin-1-yl]-1-[4-(5-methyl-1H-benzoimidazol-2-yl)-piperidin-1-yl]-ethanone]",39.7
6,"Cc1cccc(Cl)c1S(=O)(=O)N1CCn2cccc2C1CC(=O)NCC1CCN(Cc2ccccc2)C1 (centres unmarked) [Example 166, N-[(1-Benzyl-pyrrolidin-3-yl)-methyl]-2-[2-[(2-chloro-6-methyl-phenyl)sulfonyl]-1,2,3,4-tetrahydro-pyrrolo[1,2-a]pyrazin-1-yl]-acetamide]",99.1
7,"O=C(CC1c2cccn2CCN1S(=O)(=O)c1ccccc1)NCCN1CCCC1 (centres unmarked) [Example 168, 2-[2-(Benzenesulfonyl)-1,2,3,4-tetrahydro-pyrrolo[1,2-a]pyrazin-1-yl]-N-(2-pyrrolidin-1-yl-ethyl)-acetamide]",40.1
8,"CN1CCN(CC(NC(=O)CC2c3cccn3CCN2S(=O)(=O)c2ccccc2)c2ccccc2)CC1 (centres unmarked) [Example 170, 2-[2-(Benzenesulfonyl)-1,2,3,4-tetrahydro-pyrrolo[1,2-a]pyrazin-1-yl]-N-[2-(4-methyl-piperazin-1-yl)-1-phenyl-ethyl]-acetamide]",68.4
9,"O=C(CC1c2cccn2CCN1S(=O)(=O)c1ccccc1)NC1CCN(Cc2ccccc2)C1 (centres unmarked) [Example 171, 2-[2-(Benzenesulfonyl)-1,2,3,4-tetrahydro-pyrrolo[1,2-a]pyrazin-1-yl]-N-(1-benzyl-pyrrolidin-3-yl)-acetamide]",24.4
10,"O=C(CC1c2cccn2CCN1S(=O)(=O)c1ccccc1)N1CCN(c2ccccc2)CC1 (centres unmarked) [Example 174, 2-[2-(Benzenesulfonyl)-1,2,3,4-tetrahydro-pyrrolo[1,2-a]pyrazin-1-yl]-1-(4-phenyl-piperazin-1-yl)-ethanone]",28
11,"O=C(CC1c2cccn2CCN1S(=O)(=O)c1ccccc1)N1CCC(N2CCCC2)CC1 (centres unmarked) [Example 175, 2-[2-(Benzenesulfonyl)-1,2,3,4-tetrahydro-pyrrolo[1,2-a]pyrazin-1-yl]-1-(4-pyrrolidin-1-yl-piperidin-1-yl)-ethanone]",9.54

# Next, values leading:
row,inhibition at 10 µM [%],SMILES
1,95.1,"Cc1cccc(Cl)c1S(=O)(=O)N1CCn2cccc2C1CC(=O)NC(CN1CCN(C)CC1)c1ccccc1 (centres unmarked) [Example 156, 2-[2-[(2-Chloro-6-methyl-phenyl)sulfonyl]-1,2,3,4-tetrahydro-pyrrolo[1,2-a]pyrazin-1-yl]-N-[2-(4-methyl-piperazin-1-yl)-1-phenyl-ethyl]-acetamide]"
2,42.8,"Cc1cccc(Cl)c1S(=O)(=O)N1CCn2cccc2C1CC(=O)N1CCC(N2CCCCC2)CC1 (centres unmarked) [Example 160, 2-[2-[(2-Chloro-6-methyl-phenyl)sulfonyl]-1,2,3,4-tetrahydro-pyrrolo[1,2-a]pyrazin-1-yl]-1-(4-piperidin-1-yl-piperidin-1-yl)-ethanone]"
3,25.2,"Cc1cccc(Cl)c1S(=O)(=O)N1CCn2cccc2C1CC(=O)N1CCN(c2ncccn2)CC1 (centres unmarked) [Example 162, 2-[2-[(2-Chloro-6-methyl-phenyl)sulfonyl]-1,2,3,4-tetrahydro-pyrrolo[1,2-a]pyrazin-1-yl]-1-(4-pyrimidin-2-yl-piperazin-1-yl)-ethanone]"
4,44.1,"Cc1cccc(Cl)c1S(=O)(=O)N1CCn2cccc2C1CC(=O)N1CCCN(c2ncccc2C#N)CC1 (centres unmarked) [Example 164, 2-[4-[2-[2-[(2-Chloro-6-methyl-phenyl)sulfonyl]-1,2,3,4-tetrahydro-pyrrolo[1,2-a]pyrazin-1-yl]-acetyl]-[1,4]diazepan-1-yl]-pyridine-3-carbonitrile]"
5,55.8,"Cc1cccc(Cl)c1S(=O)(=O)N1CCn2cccc2C1CC(=O)N1CCC(CCN2CCCCC2)CC1 (centres unmarked) [Example 165, 2-[2-[(2-Chloro-6-methyl-phenyl)sulfonyl]-1,2,3,4-tetrahydro-pyrrolo[1,2-a]pyrazin-1-yl]-1-[4-(2-piperidin-1-yl-ethyl)-piperidin-1-yl]-ethanone]"
6,0.145,"O=C(CC1c2cccn2CCN1S(=O)(=O)c1ccccc1)N1CCC(O)(c2cccnc2)CC1 (centres unmarked) [Example 167, 2-[2-(Benzenesulfonyl)-1,2,3,4-tetrahydro-pyrrolo[1,2-a]pyrazin-1-yl]-1-(4-hydroxy-4-pyridin-3-yl-piperidin-1-yl)-ethanone]"
7,7.57,"CC1CCCC(C)N1CCCNC(=O)CC1c2cccn2CCN1S(=O)(=O)c1ccccc1 (centres unmarked) [Example 169, 2-[2-(Benzenesulfonyl)-1,2,3,4-tetrahydro-pyrrolo[1,2-a]pyrazin-1-yl]-N-[3-(2,6-dimethyl-piperidin-1-yl)-propyl]-acetamide]"
8,14.1,"O=C(CC1c2cccn2CCN1S(=O)(=O)c1ccccc1)N1CCN(c2ccccc2F)CC1 (centres unmarked) [Example 172, 2-[2-(Benzenesulfonyl)-1,2,3,4-tetrahydro-pyrrolo[1,2-a]pyrazin-1-yl]-1-[4-(2-fluorophenyl)-piperazin-1-yl]-ethanone]"
9,9.74,"CCN1CCN(C(=O)CC2c3cccn3CCN2S(=O)(=O)c2ccccc2)CC1 (centres unmarked) [Example 173, 2-[2-(Benzenesulfonyl)-1,2,3,4-tetrahydro-pyrrolo[1,2-a]pyrazin-1-yl]-1-(4-ethyl-piperazin-1-yl)-ethanone]"
